In patent publication US20190046490A1, “METHODS OF TREATING LACTOSE INTOLERANCE” (Nogra Pharma Limited, priority 2016, published 2019):
“Also recorded” adds a separate entry of the source.

Tests used:
[1] = system: LCT activity; test: Lactase activity in Caco-2 cells (glucose oxidase method); type: cell-based, human; conditions: Caco-2 cells, 30 mM
Experimental: (§1) Lactase activity was evaluated by using a glucose oxidase method (Glucose Assay Kit, Sigma). This lactase assay is based on the measurement of the amount of glucose produced following the action of lactase by incubating samples with a lactose buffer solution (0.056 mol/l lactose in a 0.1 mol/l Na-maleate buffer). For Caco-2 cells, lactase activity was determined directly from the cell monolayer. After extensive washing, the cell monolayer was incubated with lactose buffer for one hour at 37° C. The supernatant was recovered, 50 μl were diluted with 100 μl of glucose oxidase reagent and incubated at 37° C. for 1 hour. The reaction was stopped with 100 μl of H2SO4 and read by spectrophotometry at 450 nm. When lactase activity was determined from intestinal sample, tissue samples were first dounce-homogenized in 0.9% NaCl on crushed ice. These homogenates were then diluted in 0.9% NaCl ( 1/500) and 50 μl of dilution were incubated with lactose buffer and used to determine lactase activity. For each experiment, the background attributed to the remaining glucose in the samples was measured by incubating cells or cell extracts in lactose-free buffer.

[2] = system: LCT; test: LCT mRNA expression and activity in proximal small intestine of mice after oral GED; type: in vivo; conditions: weaned C57BL/6 mice, 30 mg/kg daily by gavage for 7 days
Experimental: (§2) Expression of genes of interest was quantified by quantitative PCR (qPCR) of corresponding reverse transcribed mRNA. One μg of total RNA was reverse-transcribed into cDNA using the High Capacity cDNA Archive kit (Applied Biosystems). Amplification was performed using an ABI PRISM 7000 sequence detection system (Applied Biosystem) using Power SYBR® Green PCR master Mix (Applied Biosystem). Primer pairs for each human transcript were chosen with qPrimer depot software (at primerdepot.nci.nih.gov.). Quantification of qPCR signals was performed using ΔCt relative quantification method using GAPDH as a reference gene for human and rat samples and β-Actin for mouse samples. Values were represented in terms of relative quantity of mRNA level variation or fold increase compared to control conditions.
(§3) Lactase activity was evaluated by using a glucose oxidase method (Glucose Assay Kit, Sigma). […] For Caco-2 cells, lactase activity was determined directly from the cell monolayer. […] The reaction was stopped with 100 μl of H2SO4 and read by spectrophotometry at 450 nm. When lactase activity was determined from intestinal sample, tissue samples were first dounce-homogenized in 0.9% NaCl on crushed ice. […] For each experiment, the background attributed to the remaining glucose in the samples was measured by incubating cells or cell extracts in lactose-free buffer. […]

[3] = system: LCT; test: LCT mRNA expression and activity in proximal small intestine of rats after oral GED; type: in vivo; conditions: weaned Sprague-Dawley rats, 30 mg/kg daily by gavage for 7 days
Experimental: as §2, §3

[4] = system: Caco-2 cells; test: Glucose uptake assay (2-DG6P) in Caco-2 cells; type: cell-based, human; conditions: 1 mM, 24 h
Experimental: Glucose uptake was evaluated by using the glucose uptake colorimetric assay kit (Sigma-Aldrich) according to the manufacturer's instructions. Briefly, Caco-2 cells were seeded into a 96-well plate at a density of 30,000 cells per well. Cells were serum deprived for 16 hours prior to stimulation in order to synchronize the cells. Cells were treated with GED (1 mM) or pioglitazone (1 μM) for 24 h. Cells were then washed 3 times with PBS and were glucose-starved by incubating with 100 μl of KRPH buffer (Krebs-Ringer-Phosphate-HEPES (KRPH) Buffer—20 mM HEPES, 5 mM KH2PO4, 1 mM MgSO4, 1 mM CaCl2, 136 mM NaCl, and 4.7 mM KCl, pH 7.4) containing 2% BSA for 40 minutes. 10 μl of 2-deoxyglucose (2-DG; 10 mM) was then added and incubation was continued for 20 minutes. 2-DG is taken up by the cells and phosphorylated by hexokinase to 2-DG6P, which cannot be further metabolized and accumulates in cells. Following incubation, cells were washed 3 times with PBS and lysed with 80 μl of the extraction buffer provided. The amount of 2-DG6P (which is directly proportional to glucose uptake by the cells) was determined by a colorimetric detection assay according to the manufacturer's protocol.

[5] = system: LCT; test: LCT mRNA and LCT activity in duodenum and jejunum of rats after 5 days oral gavage; type: in vivo, Sprague Dawley rats
Experimental: as §2, §1
To determine whether CLA induces LCT expression and activity in vivo, Sprague Dawley rats were fed a control diet and administered either carboxymethyl cellulose (CMC; 0.5%), CLA, or GED for 5 days, after which levels of PPARγ mRNA, LCT mRNA, and LCT activity were measured. CLA was administered at 200 mg/kg/day by oral gavage, and GED was administered at 30 mg/kg/day by oral gavage (FIG. 21A).

[6] = oral gavage 5 days, GED 30 mg/kg/day, CLA 200 mg/kg/day

SMILES: COC(Cc1ccc(N)cc1)C(=O)O (stereo not shown) [GED, 3-(4′-aminophenyl)2-methoxypropionic acid]
- LCT activity relative to control cells [1]: significant increase; also recorded: significantly upregulated
- LCT activity in the proximal part of the small intestine [2]: significantly increased
- LCT expression in the proximal part of the small intestine [2]: significantly increased
- LCT activity in the proximal part of the small intestine [3]: significantly increased
- LCT expression in the proximal part of the small intestine [3]: significantly increased
- glucose uptake of Caco-2 cells [4]: did not significantly alter
- LCT activity in jejunal tissue compared to CMC control ([5]; 30 mg/kg/day oral gavage 5 days): significant increase
- LCT activity in duodenal tissue compared to CMC control [5, 6]: significant increase
- LCT mRNA expression in duodenal tissue relative to CMC control [5, 6]: significant increase
- LCT mRNA expression in jejunal tissue relative to CMC control [5, 6]: significant increase
